SMILES strings stand for the structures. ≈ marks a conversion by molar mass, not a printed value.

The conditions of the data set: 25 °C.
The compound `Cc1cc(O)ccc1Cl` registered a solubility of 26.9 mM (≈ 3830 µg/mL). This counts as millimolar.
The compound `COC(=O)c1ccc(C(=O)OC)cc1` showed a solubility of 0.0978 mM (≈ 19 µg/mL).
The same measure for `Brc1ccc2ccccc2c1`: 0.0398 mM (≈ 8.24 µg/mL); for `CCCCC(=O)OC`: 43.6 mM (≈ 5060 µg/mL); for `Nc1cccc(C(F)(F)F)c1`: 33.9 mM (≈ 5450 µg/mL).
`c1ccc(NNc2ccccc2)cc1` returned a solubility of 1.2 mM (≈ 221 µg/mL).
The same measure for `CCNc1ccccc1`: 19.9 mM (≈ 2410 µg/mL); for `CC(O)CNCC(C)O` (centres undefined): 6490 mM (≈ 865000 µg/mL); for `CCCCCCl`: 1.85 mM (≈ 197 µg/mL).
In turn, `CCCNCCC` registered a solubility of 579 mM (≈ 58600 µg/mL).
Regarding `CCC(C)(C)Cl`, the solubility was determined as 3.09 mM (≈ 329 µg/mL). This solubility is about 190-fold lower than that of the compound before.
The same measure for `Brc1cccc(Br)c1Br`: 0.00912 mM (≈ 2.87 µg/mL); for `CCCCCCCl`: 0.754 mM (≈ 91 µg/mL); for `CCCOC(=O)c1ccccc1`: 2.14 mM (≈ 351 µg/mL).

Broadly, the solubility is how much of the substance goes into solution per volume.

The values above are taken from the OPERA property sets (Mansouri et al. 2018).
